Reference: patent US20250282720A1, “ALKYLSULFENYL THIOCARBONATES: PRECURSORS TO HYDROPERSULFIDES POTENTLY ATTENUATE OXIDATIVE STRESS” (The Johns Hopkins University, priority 2021, published 2025)
Entries after “also recorded” stand apart in the source; their conditions may differ.

How the values were obtained:
[1] = system: transferrin receptor 1 (TFR1); experiment: TFR1 protein expression, immunoblot; type: cell-based, human; settings: 25 and 50 μM for 4 h, erastin 24 h
Protocol: FIG. 14A, FIG. 14B, FIG. 14C, and FIG. 14D show: FIG. 14A and FIG. 14B pretreatment of AST (25 and 50 μM) for 4 h followed by 24 h treatment with erastin ([…]) immunoblots for indicated proteins of lysates derived from FA fibroblasts. FIG. 14C and FIG. 14D, relative abundance of TFR1 and FTH1 proteins normalized to β-actin loading control. Results are the means+SEM of n=3 for all concentrations. *P<0.05, **P<0.005, comparisons with the erastin group. Group comparisons are determined by a one-way analysis of variance (ANOVA) with Dunnet's correction post-hoc test using GraphPad Prism 8. Samples were run on the same gel for SDS-Page gel electrophoresis in nonconsecutive lanes;
To test this hypothesis, we studied the effect of RSSH on TFR1 and FTH1 expression levels. We anticipated that the impacts of RSSH would result in downregulation of TFR1 and upregulation of FTH1. […] Feng et al., 2020; Park and Chung, 2019.

aconitase = experiment: Aconitase protein expression, immunoblot; type: cell-based, human
Protocol: Mitochondrial aconitase levels are unaffected by treatment of AST and H2O2. Immunoblot analysis was conducted utilizing enriched-mitochondrial pellets. Results are expressed as SEM with n≥3 for all concentrations;
Given these encouraging results, it was critical to determine whether the RSSH's positive impact on aconitase activity was due to enhanced Fe—S cluster biosynthesis or increased aconitase expression.

FA fibroblasts = experiment: Lipid peroxidation, C11-BODIPY (581/591) flow cytometry; type: cell-based, human; settings: 50 μM pre-treatment for 4 h, erastin 10 μM
Source text: Blue represents DMSO-treated cells, red represents erastin treated cells, and green represents reduction of lipid peroxidation in live cells pretreated with AST;
The reduction of FXN levels in FA increases mitochondrial iron accumulation, ultimately leading to iron-dependent accumulation of lipid ROS and subsequent lipid peroxidation. […] As has been reported previously, we employed C11-BODIPY (581/591) to monitor a shift in fluorescence of oxidized C11-BODIPY. […] Dixon et al., 2012; Martinez et al., 2020.

FA fibroblasts (GM04078) = experiment: Cytoprotection against H2O2 stress in FA fibroblasts, CCK8; type: cell-based, human; settings: 4 h pretreatment, H2O2 75 μM for 4 h
Protocol: FIG. 10A, pretreatment of AST with varying concentrations in FA fibroblasts (GM04078, Coriell Institute) for 4 h followed by 4 h treatment with H2O2. Viability was measured using CCK8 assay. FIG. 10B, pretreatment of AST with varying concentrations in FA fibroblasts for 4 h followed by treatment with erastin for 24 h. […] Group comparisons are determined by a one-way analysis of variance (ANOVA) with Dunnet's correction post-hoc test using GraphPad Prism 8;
Initially, we measured the cytotoxicity of AST in FA skin fibroblasts (GM04078), obtained from the Coriell Institute, to ensure that the RSSH donor itself is not cytotoxic. […] We then measured the ability of AST to confer cytoprotection in FA fibroblasts against hydrogen peroxide (H2O2) stress.

[2] = Decomposition of precursors in the presence of thiol (NAC / N-acetyl cysteine methyl ester), HPLC; type: physicochemical; settings: 5 equiv NAC, PBS pH 7.4, HPLC
Protocol: Initially, the decomposition of 1a was analyzed in the presence of 5 equiv of N-acetylcysteine (NAC) in PBS (pH 7.4) by HPLC. […] To investigate the mechanism, this reaction was monitored by UPLC-MS. […] Additionally, a small amount of unsymmetrical dialkyl polysulfide (pink highlight, R^1SSnSR^2, n=0-3) is observed, likely formed via NAC reaction with symmetrical dialkyl polysulfides (Scheme 1-5, eq. 7). As expected, a new peak at 5.65 min corresponding to N-acetyl cysteine-thiocarbonate 9a also is observed, confirming thiol attack at the perthiocarbonate carbonyl carbon of 1a to release RSSH. Due to the unstable nature of RSSH under these experimental conditions, the yield of the by-product 9a was measured as an indication of RSSH yield. The observation of RSSH-derived polysulfides formation as major products led us to anticipate the efficient formation of by-product 9a. […] The lower observed yield of 9a is likely due to its further reaction with RSSH under these conditions. […]
To a solution of N-acetyl cysteine methyl ester (500 μM) in pH 7.4 phosphate buffer saline (100 mM) containing DTPA (100 μM), precursor 1a or 8 (100 μM) was added. […] At different time points, an aliquot of the reaction mixture (500 μL) was withdrawn and transferred to pre-cooled 0.1% formic acid (500 μL) and analyzed using HPLC. […]

H9c2 cardiac myoblasts = experiment: Intracellular sulfane sulfur detection using the SSP4 probe; type: cell-based, rat; set-up: SSP4 fluorescence signal (intracellular sulfane sulfur): dose or concentration left out as unconfirmed
Protocol: Increased intracellular RSSH levels resulting from incubation with 1a utilizing SSP4, a fluorescent probe that has been used to detect of intracellular sulfane sulfur, Chen et al., 2013; Marutani et al., 2014, also was tested. Sulfane sulfur refers to a sulfur atom with six valence electrons and no charge. Biologically important sulfane sulfur compounds include RSSH, polysulfides (RSnSH or RSSnSR, n≥1), inorganic polysulfides (HSSnH, n≥1), and elemental sulfur (S8). Briefly, cells were incubated with SSP4 in the presence of cetrimonium bromide (CTAB) for 20 min and then washed with serum-free media before 1a is introduced. A significant increase of the SSP4 fluorescence signal was not observed following treatment with […] 1a due to the low amount of RSSH released at this concentration falling below the detection limit of the probe (FIG. 6). […] Since the SSP4 probe is known to react with a variety of sulfane sulfur species, the fluorescence signal observed upon treatment of 1a is likely due to RSSH and/or other sulfane sulfur species that might be present in the equilibrium with RSSH (e.g., Scheme 1-5). Thus, it is thought that the cytoprotective effects of 1a are attributed to increasing sulfane sulfur pools within the cultured cells.
Cells were seeded at a density of 1.5×10^4 cells/well. […] The fluorescence readings were obtained at 482Ex/515Em.

TFR1 protein level [1]: three-fold decrease | aconitase expression levels (aconitase; in combination with erastin): no significant impact | t1/2 of decomposition in the presence of thiol [2]: 38.4 ± 6.6 s
SMILES: COC(=O)C(NC(C)=O)C(C)(C)SSC(=O)Oc1ccccc1 (centres unmarked) [Precursor 1a, Methyl 2-acetamido-3-methyl-3-((phenoxycarbonyl)disulfaneyl)butanoate]
aconitase protein expression (aconitase; 25 μM, 12 h pretreatment, 12 h H2O2, listed as AST): does not alter aconitase protein expression; also recorded: unaffected | erastin-induced lipid peroxide levels (FA fibroblasts): attenuated erastin-induced lipid peroxide levels | cytoprotection against H2O2 stress (FA fibroblasts (GM04078)): attenuated | SSP4 fluorescence signal (intracellular sulfane sulfur) (H9c2 cardiac myoblasts): not observed | SSP4 fluorescence intensity (intracellular sulfane sulfur) (H9c2 cardiac myoblasts; 100 and 200 mM, over a period of 3 h): Dose-dependent increases in fluorescence intensity
